The values that follow come from patent US6610708B1, “Cyclic amino compounds” (Sankyo Company, Limited, priority 1998, dated 2003).

The test system of one data set is Human Platelets. The data set is described as follows: Antiaggregatory action in human platelets (ADP-induced aggregation in platelet-rich plasma). The class given is cell-based. Particulars: human PRP; for inhibition at 10 µg/mL / inhibition at 30 µg/mL / inhibition at 100 µg/mL: Platelet, read-out: Test 1 (% inhibition) of platelet aggregation. Here is the method:
Antiaggregatory Action in Human Platelets
Platelet aggregation was measured using an automatic platelet aggregometer (PAM-8C, Mebanix) using the method of G.V.R. Born [Nature, 194, 927-929 ([…])] with a slight modification. Blood was collected from the antecubital vein of healthy volunteers who had not taken any medications for two weeks using 3.8% sodium citrate as an anticoagulant ( 1/9 volumes of blood). Platelet-rich plasma (PRP) was obtained by centrifugation (CR5DL, Hitachi) at 200× g for 15 min at room temperature. Platelet-poor plasma (PPP) was obtained by centrifugation of the remaining blood at 2,000× g for 10 min at room temperature. Platelet counts in PRP were measured by an automatic hematology analyzer (K-1000, Toa Iyo Denshi), and adjusted to 3×10^8 /ml by adding PPP. PRP prepared as described above was used for the platelet aggregation experiment. PRP (0.24 ml) containing a test compound was added to a cuvette and set placed in the platelet aggregometer. After pre-incubation for 1.5 min at 37° C., 0.01 ml of 0.25 mM ADP were added to the cuvette to induce platelet aggregation. Platelet aggregation was monitored for 10 min.
Antiaggregatory action of the test compound was determined as a percent inhibition (%) against platelet aggregation of a control (free of the test compound).

Molecules are shown by their SMILES.

The term inhibition denotes the relative decrease from the control value, in per cent. The melting point is the temperature, or range, at which the solid turns liquid. `COC(=O)/C=C1\CN(C(C(=O)OC)c2ccccc2Cl)CCC1SS(=O)(=O)c1ccc(C)cc1` (stereo not drawn) [Example 7 (ii), (E)-1-(2-Chloro-α-methoxycarbonylbenzyl)-3-methoxycarbonylmethylidene-4-(4-methylphenylsulfonylthio)piperidine] had a melting point of 144 to 146 °C. Also, the inhibition at 10 µg/mL with Human Platelets (10 μg/ml test compound) was 34.5%. Besides, the inhibition at 30 µg/mL with Human Platelets (30 μg/ml test compound) was determined as 81.5%.
As for `COC(=O)C(c1ccccc1F)N1CCC(SS(=O)(=O)c2ccc(C)cc2)CC1` (stereo not drawn) [Example 3 (d), 1-(2-Fluoro-α-methoxycarbonylbenzyl)-4-(4-methylphenylsulfonylthio)-piperidine], in the data set on Human Platelets (10 μg/ml test compound), the inhibition at 10 µg/mL was found to be 24.4%. The inhibition at 30 µg/mL with Human Platelets (30 μg/ml test compound) amounted to 89.3%. For the same compound, the inhibition at 100 µg/mL with Human Platelets (100 μg/ml test compound) is 99.8%.
On to `O=C(C1CC1)C(c1ccccc1F)N1CCC(SS(=O)(=O)c2ccc(Cl)cc2)CC1` (stereo not drawn) [Example 10 (b), 4-(4-Chlorophenylsulfonylthio)-1-(α-cyclopropylcarbonyl-2-fluorobenzyl)-piperidine], for which the inhibition at 10 µg/mL in the data set on Human Platelets (10 μg/ml test compound) was 35.2%. Also, the inhibition at 30 µg/mL in the data set with Human Platelets (30 μg/ml test compound) came out at 96.2%. For the same compound, the inhibition at 100 µg/mL in the data set with Human Platelets (100 μg/ml test compound) stood at 98.8%.
For the compound `O=C(C1CC1)C(c1ccccc1F)N1CCC(SS(=O)(=O)c2ccc(Cl)cc2)CC1` (stereo not drawn) [Example 10, 4-(4-Chlorophenylsulfonylthio)-1-(α-cyclopropylcarbonyl-2-fluorobenzyl)-piperidine], the melting point was in the range of 108 to 116 °C.
`Cc1ccc(S(=O)(=O)SC2CCN(C(C(=O)C3CC3)c3ccccc3F)C2)cc1` (stereo not drawn) [Example 4 (d), 1-(α-Cyclopropylcarbonyl-2-fluorobenzyl)-3-(4-methylphenylsulfonylthio)-pyrrolidine]: the inhibition at 10 µg/mL with Human Platelets (10 μg/ml test compound) was determined as 30.6%. Further, the inhibition at 30 µg/mL in the data set on Human Platelets (30 μg/ml test compound) is 77.6%. For the same compound, the inhibition at 100 µg/mL in the data set with Human Platelets (100 μg/ml test compound) came out at 99.5%.
Consider `COC(=O)C(c1ccccc1F)N1CCC(SS(=O)(=O)c2ccc(C)cc2)CC1` (stereo not drawn) [Example 3, 1-(2-Fluoro-α-methoxycarbonylbenzyl)-4-(4-methylphenylsulfonylthio)-piperidine], for which the melting point fell in the range of 106 to 109 °C.
The same measure, in the same setting: for `N[C@@H](CSSC1CCN(C(C(=O)C2CC2)c2ccccc2F)C/C1=C/C(=O)O)C(=O)O` (stereo partly drawn) [Example 19, (Z)-4-[(R)-2-Amino-2-carboxyethyldisulfanyl]-3-carboxymethylidene-1-(α-cyclopropylcarbonyl-2-fluorobenzyl)piperidine] the value was 135 to 138 °C.
On to `O=C(C1CC1)C(c1ccccc1F)N1CCC(SS(=O)(=O)c2ccc(F)cc2)CC1` (stereo not drawn) [Example 11, 1-(α-Cyclopropylcarbonyl-2-fluorobenzyl)-4-(4-fluorophenylsulfonylthio)-piperidine], for which the melting point fell in the range of 110 to 121 °C.
On the same count and under the same terms, the value for `O=C(C1CC1)C(c1ccccc1F)N1CCC(SSc2ccccc2[N+](=O)[O-])CC1` (stereo not drawn) [Example 18, 1-(α-Cyclopropylcarbonyl-2-fluorobenzyl)-4-(2-nitrophenyldisulfanyl)-piperidine] was 110 to 116 °C.
Take `C[S+]([O-])SC1CCN(C(C(=O)C2CC2)c2ccccc2F)CC1` (stereo not drawn) [Example 15 (b), 1-(α-Cyclopropylcarbonyl-2-fluorobenzyl)-4-methylsulfinylthiopiperidine]: in the data set with Human Platelets (10 μg/ml test compound), the inhibition at 10 µg/mL was found to be 12.3%. In the data set on Human Platelets (30 μg/ml test compound), the inhibition at 30 µg/mL is 28.1%. Moreover, in the data set on Human Platelets (100 μg/ml test compound), the inhibition at 100 µg/mL was 71.1%.
Taken in the same sequence, the figures for `COc1ccc(S(=O)(=O)SC2CCN(C(C(=O)C3CC3)c3ccccc3F)CC2)cc1` (stereo not drawn) [Example 12 (b), 1-(α-Cyclopropylcarbonyl-2-fluorobenzyl)-4-(4-methoxyphenylsulfonylthio)piperidine] were 19.2%, 93.9% and 100%.
For the compound `Cc1ccc([S+]([O-])SC2CCN(C(C(=O)C3CC3)c3ccccc3F)CC2)cc1` (stereo not drawn) [Example 13, 1-(α-Cyclopropylcarbonyl-2-fluorobenzyl)-4-(4-methylphenylsulfinylthio)-piperidine], the melting point lay in the range of 110 to 118 °C.
For `Cc1ccc(S(=O)(=O)SC2CCN(C(C(=O)C3CC3)c3ccccc3F)C2)cc1` (stereo not drawn) [Example 4, 1-(α-Cyclopropylcarbonyl-2-fluorobenzyl)-3-(4-methylphenylsulfonylthio)-pyrrolidine], the melting point lay within 98 to 106 °C.
Take `CS(=O)(=O)SC1CCN(C(C(=O)C2CC2)c2ccccc2F)CC1` (stereo not drawn) [Example 8, 1-(α-Cyclopropylcarbonyl-2-fluorobenzyl)-4-methylsulfonylthiopiperidine]: the melting point fell in the range of 89 to 91 °C. For the same compound, the inhibition at 10 µg/mL with Human Platelets (10 μg/ml test compound) is 19.5%. Further, in the data set with Human Platelets (30 μg/ml test compound), the inhibition at 30 µg/mL came out at 88%. The inhibition at 100 µg/mL with Human Platelets (100 μg/ml test compound) turned out to be 100%.
Regarding `Cc1ccc(SSC2CCN(C(C(=O)C3CC3)c3ccccc3F)CC2)cc1` (stereo not drawn) [Example 16, 1-(α-Cyclopropylcarbonyl-2-fluorobenzyl)-4-(4-methylphenyldisulfanyl)-piperidine], the melting point fell in the range of 96 to 103 °C.
Regarding `O=C(C1CC1)C(c1ccccc1F)N1CCC(SS(=O)(=O)c2ccc(F)cc2)CC1` (stereo not drawn) [Example 11 (b), 1-(α-Cyclopropylcarbonyl-2-fluorobenzyl)-4-(4-fluorophenylsulfonylthio)-piperidine], the inhibition at 10 µg/mL in the data set on Human Platelets (10 μg/ml test compound) was 15.5%. The inhibition at 30 µg/mL in the data set with Human Platelets (30 μg/ml test compound) stood at 98%. In the data set with Human Platelets (100 μg/ml test compound), the inhibition at 100 µg/mL came out at 92.5%.
On to `COc1ccc(S(=O)(=O)SC2CCN(C(C(=O)C3CC3)c3ccccc3F)CC2)cc1` (stereo not drawn) [Example 12, 1-(α-Cyclopropylcarbonyl-2-fluorobenzyl)-4-(4-methoxyphenylsulfonylthio)piperidine], for which the melting point is 113 to 122 °C.
Regarding `Cc1ccc([S+]([O-])SC2CCN(C(C(=O)C3CC3)c3ccccc3F)C2)cc1` (stereo not drawn) [Example 14 (b), 1-(α-Cyclopropylcarbonyl-2-fluorobenzyl)-3-(4-methylphenylsulfinylthio)-pyrrolidine], the inhibition at 10 µg/mL in the data set with Human Platelets (10 μg/ml test compound) amounted to 28.6%. Moreover, in the data set with Human Platelets (30 μg/ml test compound), the inhibition at 30 µg/mL came out at 64%. Moreover, the inhibition at 100 µg/mL in the data set on Human Platelets (100 μg/ml test compound) was determined as 95.8%.
`O=C(C1CC1)C(c1ccccc1F)N1CCC(SS(=O)(=O)c2ccccc2)CC1` (stereo not drawn) [Example 9, 1-(α-Cyclopropylcarbonyl-2-fluorobenzyl)-4-phenylsulfonylthiopiperidine] showed a melting point of 105 to 116 °C.
Regarding `COC(=O)C(c1ccccc1Cl)N1CCC(SS(=O)(=O)c2ccc(C)cc2)CC1` (stereo not drawn) [Example 2 (d), 1-(2-Chloro-α-methoxycarbonylbenzyl)-4-(4-methylphenylsulfonylthio)-piperidine], the inhibition at 10 µg/mL in the data set with Human Platelets (10 μg/ml test compound) worked out at 32.8%. Also, in the data set with Human Platelets (30 μg/ml test compound), the inhibition at 30 µg/mL turned out to be 97.1%. For the same compound, the inhibition at 100 µg/mL in the data set with Human Platelets (100 μg/ml test compound) was 98%.
As for `COC(=O)C(c1ccccc1Cl)N1CCC(SS(=O)(=O)c2ccc(C)cc2)CC1` (stereo not drawn) [Example 2, 1-(2-Chloro-α-methoxycarbonylbenzyl)-4-(4-methylphenylsulfonylthio)-piperidine], the melting point lay within 100 to 115 °C.
Turning to `O=C(C1CC1)C(c1ccccc1F)N1CCC(SS(=O)(=O)c2ccccc2)CC1` (stereo not drawn) [Example 9 (b), 1-(α-Cyclopropylcarbonyl-2-fluorobenzyl)-4-phenylsulfonylthiopiperidine], the inhibition at 10 µg/mL in the data set on Human Platelets (10 μg/ml test compound) was 23.4%. The inhibition at 30 µg/mL with Human Platelets (30 μg/ml test compound) worked out at 97.3%. The inhibition at 100 µg/mL in the data set on Human Platelets (100 μg/ml test compound) stood at 94%.
In the case of `Cc1ccc(S(=O)(=O)SC2CN(C(C(=O)C3CC3)c3ccccc3F)C2)cc1` (stereo not drawn) [Example 5 (d), 1-(α-Cyclopropylcarbonyl-2-fluorobenzyl)-3-(4-methylphenylsulfonylthiol)-azetidine], the figures for the “Test 1 (% inhibition) of platelet aggregation” value with Human Platelets (10 μg/ml test compound), in the data set with Human Platelets (30 μg/ml test compound) and in the data set with Human Platelets (100 μg/ml test compound) were 37.1%, 98.4% and 99.6%, respectively.
Consider `Cc1ccc([S+]([O-])SC2CCN(C(C(=O)C3CC3)c3ccccc3F)C2)cc1` (stereo not drawn) [Example 14, 1-(α-Cyclopropylcarbonyl-2-fluorobenzyl)-3-(4-methylphenylsulfinylthio)-pyrrolidine], for which the melting point is 87 to 100 °C.
Compound `CCOC(=O)/C=C1\CN(C(C(=O)C2CC2)c2ccccc2F)CCC1SS(=O)(=O)c1ccc(C)cc1` (stereo not drawn) [Example 6, (E)-1-(α-Cyclopropylcarbonyl-2-fluorobenzyl)-3-ethoxycarbonylmethylidene-4-(4-methylphenylsulfonylthio)piperidine] yielded a melting point of 94 to 103 °C.
The compound `O=C(C1CC1)C(c1ccccc1F)N1CCC(SSc2ccc([N+](=O)[O-])cc2[N+](=O)[O-])CC1` (stereo not shown) had a melting point of 120 to 127 °C.
On the same count and under the same terms, for `C[S+]([O-])SC1CCN(C(C(=O)C2CC2)c2ccccc2F)CC1` (stereo not drawn) [Example 15, 1-(α-Cyclopropylcarbonyl-2-fluorobenzyl)-4-methylsulfinylthiopiperidine] the value was 105 to 111 °C.
Take `Cc1ccc([S+]([O-])SC2CCN(C(C(=O)C3CC3)c3ccccc3F)CC2)cc1` (stereo not drawn) [Example 13 (b), 1-(α-Cyclopropylcarbonyl-2-fluorobenzyl)-4-(4-methylphenylsulfinylthio)-piperidine]: in the data set with Human Platelets (10 μg/ml test compound), the inhibition at 10 µg/mL stood at 13.3%. Besides, the inhibition at 30 µg/mL with Human Platelets (30 μg/ml test compound) came to 40%. The inhibition at 100 µg/mL with Human Platelets (100 μg/ml test compound) amounted to 91.8%.
